Source: patent US8603980B2, “Glutamate receptor antagonists and methods of use” (The Johns Hopkins University, priority 2007, dated 2013)
Entries after “also recorded” stand apart in the source; their conditions may differ. Read-outs that look alike come from different tables or passages of the source.

How the values were obtained:
[1] = tested on: human platelets; assay: Platelet activation by FACS (PAC-1 antibody binding or surface P-selectin); type: cell-based; details: for AMPA mediated increase in TRAP induced platelet activation: substance added before AMPA, CNQX 100 μM, JST 1 μM
Protocol: It was next determined whether glutamate is a mediator of platelet activation.
Blood was collected into citrate anticoagulant, platelets were isolated as platelet rich plasma (PRP) by centrifugation at 180 g for 15 min, and then diluted in Tyrode's buffer 1:20 for activation flow cytometry studies. […] Washed platelets were resuspended in Tyrode's.

[2] = tested on: megakaryocytes; assay: Whole-cell recordings from freshly isolated megakaryocytes; type: cell-based, mouse
Protocol: All procedures using animals were approved by the University of Miyazaki Institutional Animal Care and Use Committee. Megakaryocyte preparation was performed as reported previously (43). Briefly, mouse bone marrow was flushed with Na+-rich external solution (Na+-ES, 150 mM NaCl, 1 mM CaCl2, and 10 mM HEPES, pH adjusted to 7.2 using NMDG-OH). Cells were dispersed by repetitive pipetting, washed three times by gentle centrifugation, resuspended in Na+-ES and used within 90 min of isolation.
Whole-cell recordings were obtained from freshly isolated megakaryocytes using an intracellular solution of the following composition: 150 mM CsCl, 1 mM ethylene glycol bis(-aminoethylether)-N,N,N′,N′-tetraacetic acid (EGTA) and 10 mM HEPES. The pH was adjusted to 7.3 using NMDG-OH. The patch-clamp procedures were similar to those described previously (43). Briefly, the experiments were performed in the tight seal whole-cell configuration at room temperature and electrical signals were acquired with an HEKA EPC-7 (Darmstadt, Germany). The pipette resistances ranged between 2 MΩ and 3 MΩ. Current-voltage relationships (I-V curves) were obtained by clamping the cell to different potentials in 30 mV increments (−30, 0 and +30 mV; each of 35 ms duration) from a holding potential of −60 mV. I-V curves obtained prior to the application of the agonists were subtracted from those (typically two) obtained in the presence of the agonists. The current responses were monitored on a chart recorder (WR7700, Graphtec, Tokyo, Japan) through a lowpass filter (200 Hz). Chemicals and reagents used were purchased from either Sigma (St. Louis, Mo.) or Wako Pure Chemicals (Osaka, Japan). […] The perfusion pipette was located within 30 μm of the cell and the puff pressure was adjusted to obtain rapid and effective agonist application (<10 msec).

[3] = tested on: platelets; assay: Intracellular sodium in platelets (SBFI dye, FACS); type: cell-based, human; details: for Na+ level / influx in platelets treated with TRAP alone: amiloride 100 μM
Protocol: (§1) Human platelets were isolated from healthy volunteers who had not taken aspirin or NSAID within 10 d, under a protocol approved by The Johns Hopkins University School of Medicine Institutional Review Board (JCCI). Blood was collected into citrate anticoagulant, platelets were isolated as platelet rich plasma (PRP) by centrifugation at 180 g for 15 min, and then diluted in Tyrode's buffer 1:20 for activation flow cytometry studies. To determine surface GluR1, a Fc Blocking antibody was added to reduce non-specific background antibody binding. Mouse platelets were isolated by collection into heparinized Tyrode's buffer and isolated by centrifugation. Washed platelets were resuspended in Tyrode's. Intracellular ion concentrations were performed after incubating platelets diluted 1:20 in Tyrode's buffer with SBFI for 45 minutes prior to experiments.

[4] = tested on: platelets; assay: Platelet aggregation (aggregometer) in response to TRAP; type: cell-based, human; details: for final aggregation: exogenous addition
Protocol: as §1, with “The functional relevance of targeting platelet AMPAR signaling was assayed by first measuring aggregation in response to TRAP (10 μM) after incubating platelets with control or CNQX (1-100 μM). […] Human” for “Human”

[5] = tested on: AMPA receptor subunits GluR1-4 and kainate receptor subunit GluR5; details: cited from earlier work
[6] = Tail bleeding time
Protocol: Mice were treated intravenously (i.v.) with control PBS or CNQX (0.1 mg/kg) and 20 mins later tail bleeding times were determined.
6 week old male mice were anesthetized with ketamine and xylazine (80/13 mg/kg) and injected i.v. with either PBS or CNQX:HBC, 0.1 mg/kg of active CNQX. Twenty minutes later the distal 3 mm of the tail was amputated, immersed in 37° C. saline and the time to visual cessation of bleeding recorded.

[7] = Intravital microscopy of FeCl3 induced thrombosis in mesenteric arterioles; type: in vivo, mouse; details: for time to total vessel occlusion: FeCl3 injury
[8] = moderate TRAP (5 μM), platelets pre-incubated with substance
[9] = i.v. 20 mins before FeCl3, vs PBS

SMILES: O=C(O)C1CN(CCCP(=O)(O)O)CCN1 (racemic) [CPP, (±)-3-(2-Carboxypiperazin-4-yl)propyl-1-phosphonic acid]
- glutamate mediated increase in TRAP induced platelet activation [1]: does not inhibit

SMILES: NCCCNCCCCNCCC(=O)NCCCCCNC(=O)[C@H](CC(N)=O)NC(=O)Cc1ccc(O)cc1O [JST]
- AMPA mediated increase in TRAP induced platelet activation [1]: no effect

SMILES: C=C(C)[C@H]1CN[C@H](C(=O)O)[C@H]1CC(=O)O [KA, kainic acid]
- inward current following rapid perfusion ([2]; 100 μM, cyclothiazide in the recording solution): 3.1+/−0.9 pA
- current on rapid application without cyclothiazide ([2]; 0.1 or 1 mM, no cyclothiazide): did not induce a measurable current
- reversal potential of the agonist-induced current ([2]; I-V curves, cyclothiazide, no obvious rectification): ~0 mV
- TRAP induced platelet activation (PAC-1 antibody binding) [1, 8]: dose dependently increases

SMILES: N=C(N)NC(=O)c1nc(Cl)c(N)nc1N [amiloride]
- Na+ level / influx in platelets treated with TRAP alone ([3]; CNQX 100 μM): reduces Na+ influx

SMILES: Cc1onc(O)c1C[C@H](N)C(=O)O [AMPA, alpha(α)-amino-3-hydroxy-5-methyl-4-isoxazolepropionic acid]
- platelets aggregated at 1 min post-TRAP ([4]; AMPA 1 mM pre-treatment): approximately 75%
- rate of early aggregation ([4]; AMPA 1 mM, TRAP 10 μM): increases
- final aggregation [4]: no effect
- Na+ influx in response to TRAP after NHE inhibition ([3]; AMPA added after amiloride (100 μM)): restores Na+ influx
- current on rapid application without cyclothiazide [2]: did not induce a measurable current
- inward current following rapid perfusion [2]: 8.6+/−4.5 pA
- reversal potential of the agonist-induced current [2]: ~0 mV
- platelet activation in response to thromboxane mimetic U46619 [1]: increases platelet activation

SMILES: N[C@@H](Cn1nc(Cl)c(=O)[nH]c1=O)C(=O)O [5-chloro-6-azawillardiine]
- selectivity for GluR4 over GluR1 and 2 ([5]; at the cost of selectivity for AMPA over kainate receptors): some selectivity

SMILES: N[C@@H](CCC(=O)O)C(=O)O [glutamate]
- final aggregation [4]: no effect
- ATP mediated platelet activation [1]: not increased
- P2Y agonist 2-Me-ADP induced platelet activation [1]: increases
- TRAP induced platelet activation (PAC-1 antibody binding) [1]: significantly increases platelet activation; also recorded: dose dependently increases
- TRAP induced platelet activation: P-selectin expression [1]: increases agonist induced platelet activation
- collagen induced platelet activation [1]: no effect
- epinephrine induced platelet activation [1]: significantly increases
- increase in platelet activation following low concentration TRAP versus control [1]: approximately two times greater
- increase in platelet activation following low concentration thromboxane mimetic versus control [1]: approximately three times greater than control
- increase of TRAP induced platelet activation compared to control treated platelets [1]: greater than 50%
- platelet activation at high TRAP concentration [1]: no effect
- platelet activation in response to thromboxane mimetic U46619 [1]: dose dependently increases
- resting platelet activation (PAC-1 antibody binding) [1]: does not increase

SMILES: N#Cc1cc2[nH]c(=O)c(=O)[nH]c2cc1[N+](=O)[O-] [CNQX, -cyano-7-nitroquinoxaline-2,3-dione]
- platelet aggregation in response to TRAP ([4]; TRAP 10 μM, CNQX 1-100 μM): dose dependently reduces platelet aggregation
- average tail bleeding time ([6]; 0.1 mg/kg i.v., 20 mins before): approximately 600 sec
- time to total vessel occlusion [7]: prolonged
- time to platelet adhesion (greater than 10 platelets adherent for greater than 10 sec) [7, 9]: prolonged
- time to thrombus formation (first stable thrombus greater than 20 μm) [7, 9]: prolonged
- selectivity for AMPAR subunits versus KA receptor subunits [5]: 20-150 fold
- Na+ concentration in platelets treated with AMPA and TRAP ([3]; CNQX 100 μM): decreases Na+ concentrations
- Na+ level / influx in platelets treated with TRAP alone ([3]; CNQX 100 μM): decreases Na+ levels
- AMPA induced inward current in presence of antagonist ([2]; CNQX 30 μM): blocked
- TRAP induced platelet activation at low antagonist concentration ([1]; 10 μM CNQX): significantly decreases platelet activation
- TRAP induced platelet activation: P-selectin expression ([1]; P-selectin by FACS): decreases platelet activation
- TRAP induced platelet activation (PAC-1 antibody binding) [1, 8]: inhibits
- AMPA mediated increase in TRAP induced platelet activation [1]: inhibits the effects of AMPA

SMILES: CC(C)(C)c1o[nH]c(=O)c1CC(N)C(=O)O (stereo not shown) [ATPA]
- platelet activation by FACS [1]: increases platelet activation

SMILES: N[C@@H](Cn1ccc(=O)n(Cc2ccccc2C(=O)O)c1=O)C(=O)O [UBP302]
- bleeding time in mice ([6]; mouse, in vivo): prolongs bleeding time
- time to total vessel occlusion [7]: prolonged time to total vessel occlusion
- platelet activation by FACS [1]: dose dependently reduces platelet activation
